According to patent US8192962B2, “Processes for detecting toxic substances” (Daikin Industries, Ltd., priority 2001, dated 2012):

Tested on: DNA repair protein genes
Assay: DNA chip mRNA expression in yeast, DNA repair protein genes (Table 3)
Assay type: cell-based, Saccharomyces cerevisiae S288C
Conditions: incubated two hours, concentrations as in the 1st table
In short: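 In this screen, yeast in logarithmic growth are challenged for two hours with a toxic substance at a non-lethal inhibitory concentration. Their mRNA, converted to Cy3- or Cy5-labeled cDNA, hybridizes at 65° C. to a chip spanning every yeast gene, and expression is expressed as a ratio to untreated cells.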

Q: With `S=C([S-])NCCNC(=S)[S-].[Zn+2]` [(11), zinc N,N′-ethylenebis(dithiocarbamate)] as the compound, how does the “The level of expressed mRNA in the presence of chemical substance/The level of expressed mRNA in the absence of chemical substance” value (yeast gene YAL015C) read?
A: 1.4

Q: What about the “The level of expressed mRNA in the presence of chemical substance/The level of expressed mRNA in the absence of chemical substance” value (yeast gene YAR007C) of the same compound?
A: 0.9

Q: What about the “The level of expressed mRNA in the presence of chemical substance/The level of expressed mRNA in the absence of chemical substance” value (yeast gene YBL019W) of the same compound?
A: 1.0

Q: And the “The level of expressed mRNA in the presence of chemical substance/The level of expressed mRNA in the absence of chemical substance” value (yeast gene YBR073W)?
A: 0.5

Q: What about the “The level of expressed mRNA in the presence of chemical substance/The level of expressed mRNA in the absence of chemical substance” value (yeast gene YBR272C) of the same compound?
A: 1.1

Q: What about the “The level of expressed mRNA in the presence of chemical substance/The level of expressed mRNA in the absence of chemical substance” value (yeast gene YCR014C) of the same compound?
A: 0.8

Q: And the “The level of expressed mRNA in the presence of chemical substance/The level of expressed mRNA in the absence of chemical substance” value (yeast gene YDL017W)?
A: 0.8

Q: And the “The level of expressed mRNA in the presence of chemical substance/The level of expressed mRNA in the absence of chemical substance” value (yeast gene YDL059C)?
A: 2.0

Q: What about the “The level of expressed mRNA in the presence of chemical substance/The level of expressed mRNA in the absence of chemical substance” value (yeast gene YDL200C) of the same compound?
A: 1.2

Q: And the “The level of expressed mRNA in the presence of chemical substance/The level of expressed mRNA in the absence of chemical substance” value (yeast gene YDR054C)?
A: 1.9

Q: And the “The level of expressed mRNA in the presence of chemical substance/The level of expressed mRNA in the absence of chemical substance” value (yeast gene YDR369C)?
A: 1.1

Q: And the “The level of expressed mRNA in the presence of chemical substance/The level of expressed mRNA in the absence of chemical substance” value (yeast gene YEL019C)?
A: 1.2

Q: And the “The level of expressed mRNA in the presence of chemical substance/The level of expressed mRNA in the absence of chemical substance” value (yeast gene YEL037C)?
A: 1.0

Q: And the “The level of expressed mRNA in the presence of chemical substance/The level of expressed mRNA in the absence of chemical substance” value (yeast gene YER162C)?
A: 0.5

Q: What about the “The level of expressed mRNA in the presence of chemical substance/The level of expressed mRNA in the absence of chemical substance” value (yeast gene YFL014W) of the same compound?
A: 5.0

Q: And the “The level of expressed mRNA in the presence of chemical substance/The level of expressed mRNA in the absence of chemical substance” value (yeast gene YGL058W)?
A: 0.8

Q: What about the “The level of expressed mRNA in the presence of chemical substance/The level of expressed mRNA in the absence of chemical substance” value (yeast gene YGL091C) of the same compound?
A: 2.1

Q: What about the “The level of expressed mRNA in the presence of chemical substance/The level of expressed mRNA in the absence of chemical substance” value (yeast gene YGL127C) of the same compound?
A: 1.0

Q: And the “The level of expressed mRNA in the presence of chemical substance/The level of expressed mRNA in the absence of chemical substance” value (yeast gene YGL163C)?
A: 0.4

Q: And the “The level of expressed mRNA in the presence of chemical substance/The level of expressed mRNA in the absence of chemical substance” value (yeast gene YGL249W)?
A: 0.6

Q: And the “The level of expressed mRNA in the presence of chemical substance/The level of expressed mRNA in the absence of chemical substance” value (yeast gene YGR180C)?
A: 1.0

Q: And the “The level of expressed mRNA in the presence of chemical substance/The level of expressed mRNA in the absence of chemical substance” value (yeast gene YGR231C)?
A: 1.6

Q: And the “The level of expressed mRNA in the presence of chemical substance/The level of expressed mRNA in the absence of chemical substance” value (yeast gene YGR258C)?
A: 0.3

Q: And the “The level of expressed mRNA in the presence of chemical substance/The level of expressed mRNA in the absence of chemical substance” value (yeast gene YHR164C)?
A: 0.6

Q: What about the “The level of expressed mRNA in the presence of chemical substance/The level of expressed mRNA in the absence of chemical substance” value (yeast gene YIL036W) of the same compound?
A: 1.2

Q: What about the “The level of expressed mRNA in the presence of chemical substance/The level of expressed mRNA in the absence of chemical substance” value (yeast gene YIL072W) of the same compound?
A: 1.8

Q: What about the “The level of expressed mRNA in the presence of chemical substance/The level of expressed mRNA in the absence of chemical substance” value (yeast gene YIL143C) of the same compound?
A: 1.5

Q: What about the “The level of expressed mRNA in the presence of chemical substance/The level of expressed mRNA in the absence of chemical substance” value (yeast gene YIL153W) of the same compound?
A: 1.0

Q: And the “The level of expressed mRNA in the presence of chemical substance/The level of expressed mRNA in the absence of chemical substance” value (yeast gene YIR002C)?
A: 0.8

Q: What about the “The level of expressed mRNA in the presence of chemical substance/The level of expressed mRNA in the absence of chemical substance” value (yeast gene YJL026W) of the same compound?
A: 1.3

Q: What about the “The level of expressed mRNA in the presence of chemical substance/The level of expressed mRNA in the absence of chemical substance” value (yeast gene YJR046W) of the same compound?
A: 0.6

Q: What about the “The level of expressed mRNA in the presence of chemical substance/The level of expressed mRNA in the absence of chemical substance” value (yeast gene YJR052W) of the same compound?
A: 1.1

Q: What about the “The level of expressed mRNA in the presence of chemical substance/The level of expressed mRNA in the absence of chemical substance” value (yeast gene YKL145W) of the same compound?
A: 1.8

Q: What about the “The level of expressed mRNA in the presence of chemical substance/The level of expressed mRNA in the absence of chemical substance” value (yeast gene YLR103C) of the same compound?
A: 0.9

Q: And the “The level of expressed mRNA in the presence of chemical substance/The level of expressed mRNA in the absence of chemical substance” value (yeast gene YLR233C)?
A: 0.8

Q: And the “The level of expressed mRNA in the presence of chemical substance/The level of expressed mRNA in the absence of chemical substance” value (yeast gene YLR288C)?
A: 1.4

Q: What about the “The level of expressed mRNA in the presence of chemical substance/The level of expressed mRNA in the absence of chemical substance” value (yeast gene YML032C) of the same compound?
A: 1.0

Q: And the “The level of expressed mRNA in the presence of chemical substance/The level of expressed mRNA in the absence of chemical substance” value (yeast gene YML058W)?
A: 3.3

Q: And the “The level of expressed mRNA in the presence of chemical substance/The level of expressed mRNA in the absence of chemical substance” value (yeast gene YMR035W)?
A: 1.5

Q: What about the “The level of expressed mRNA in the presence of chemical substance/The level of expressed mRNA in the absence of chemical substance” value (yeast gene YMR072W) of the same compound?
A: 1.9

Q: And the “The level of expressed mRNA in the presence of chemical substance/The level of expressed mRNA in the absence of chemical substance” value (yeast gene YMR096W)?
A: 1.5

Q: What about the “The level of expressed mRNA in the presence of chemical substance/The level of expressed mRNA in the absence of chemical substance” value (yeast gene YMR284W) of the same compound?
A: 1.1

Q: What about the “The level of expressed mRNA in the presence of chemical substance/The level of expressed mRNA in the absence of chemical substance” value (yeast gene YNL213C) of the same compound?
A: 1.5

Q: What about the “The level of expressed mRNA in the presence of chemical substance/The level of expressed mRNA in the absence of chemical substance” value (yeast gene YNL250W) of the same compound?
A: 1.0

Q: What about the “The level of expressed mRNA in the presence of chemical substance/The level of expressed mRNA in the absence of chemical substance” value (yeast gene YNL261W) of the same compound?
A: 0.8

Q: And the “The level of expressed mRNA in the presence of chemical substance/The level of expressed mRNA in the absence of chemical substance” value (yeast gene YNL312W)?
A: 1.4

Q: And the “The level of expressed mRNA in the presence of chemical substance/The level of expressed mRNA in the absence of chemical substance” value (yeast gene YOL043C)?
A: 1.2

Q: What about the “The level of expressed mRNA in the presence of chemical substance/The level of expressed mRNA in the absence of chemical substance” value (yeast gene YOR005C) of the same compound?
A: 1.2

Q: What about the “The level of expressed mRNA in the presence of chemical substance/The level of expressed mRNA in the absence of chemical substance” value (yeast gene YOR386W) of the same compound?
A: 1.4

Q: And the “The level of expressed mRNA in the presence of chemical substance/The level of expressed mRNA in the absence of chemical substance” value (yeast gene YPL022W)?
A: 0.8

Q: What about the “The level of expressed mRNA in the presence of chemical substance/The level of expressed mRNA in the absence of chemical substance” value (yeast gene YPL164C) of the same compound?
A: 1.1

Q: What about the “The level of expressed mRNA in the presence of chemical substance/The level of expressed mRNA in the absence of chemical substance” value (yeast gene YPL194W) of the same compound?
A: 0.9

Q: And the “The level of expressed mRNA in the presence of chemical substance/The level of expressed mRNA in the absence of chemical substance” value (yeast gene YPR025C)?
A: 0.9
